These results are taken from patent US7078063B2, “Water soluble extract from plant of Solanum genus and the preparation process thereof, and pharmaceutical composition containing the water soluble extract” (G & E Herbal Biotechnology Co., LTD., priority 2003, dated 2006).

In series [1] the test system is H441. The experiment in a line: MTS tetrazolium salt cytotoxicity assay. The format is cell-based, human. The conditions noted are these: 12 hrs. Here is the method:
Hep3B was incubated in Dulbecco's Modified Eagle's medium (DMEM), while H441 and MCF-7 were incubated in RPMI-1640, both of the media containing 10% fetal bovine serum and 40 mg/L gentamycin.
The cytotoxicity of cancer cells was determined using tetrazolium salt assay (MTS, Mosmann. T., 1983, Immunol. Meth., 65, 55–63), which was conducted for the calorimetric determination of cell viability according to the manufacturer's procedures (CellTiter 96™ AQ, Promega, Madison, USA).
Cells were seeded at 1×10^4 cells/well in a 96-well plate and incubated in 5% CO2 incubator at 37° C. for at least 16 hrs. The water-soluble extract from Solanum incanum L. was dissolved in sterile injection water to give different test concentrations, which were added to each cancer-cell incubating medium in the well, and allowed to react for 12 hrs. 20 μl MTS was then added to each well, and the solution was allowed to react for 3 hrs. Upon completion of the reaction, absorbency in each well was determined at 490 nm by using ELISA reader 312e, Bio-TEK. Each value was expressed as means ±SD from three experiments.
Cytotoxicity was determined by MTS tetrazolium salt assay disclosed in Pharmacological assay 1. […] Data were expressed as means ±SD from three experiments.

Series [2] in a line: dissolving in water. The format is physicochemical.
Where [3] appears, read: dried powders, without being pre-treated with DMSO.
[4] abbreviates: purified from the water-soluble extract by HPLC.

As for `C[C@@H]1CC[C@@]2(NC1)O[C@H]1C[C@H]3[C@@H]4CC=C5C[C@@H](O[C@@H]6O[C@H](CO)[C@H](O)[C@H](O[C@@H]7O[C@H](CO)[C@@H](O)[C@H](O)[C@H]7O)[C@H]6O[C@@H]6O[C@@H](C)[C@H](O)[C@@H](O)[C@H]6O)CC[C@]5(C)[C@H]4CC[C@]3(C)[C@H]1[C@@H]2C` [solasonine], the “inhibiting the growth of H441” value in series [1] is recorded as “effectively inhibited”. The dissolving in water entry in series [2] (setting [3]) is on record as “could not dissolve in water”; in series [2] (setting [4]) it was “directly dissolved in water”.

For the compound `C[C@@H]1CC[C@@]2(NC1)O[C@H]1C[C@H]3[C@@H]4CC=C5C[C@@H](O[C@@H]6O[C@H](CO)[C@@H](O[C@@H]7O[C@@H](C)[C@H](O)[C@@H](O)[C@H]7O)[C@H](O)[C@H]6O[C@@H]6O[C@@H](C)[C@H](O)[C@@H](O)[C@H]6O)CC[C@]5(C)[C@H]4CC[C@]3(C)[C@H]1[C@@H]2C` [solamargine], the “inhibiting the growth of H441” value in series [1] was “effectively inhibited”. Moreover, the values for the dissolving in water result in series [2] (setting [3]) and in series [2] (setting [4]) were “could not dissolve in water” and “directly dissolved in water”, respectively.
